Test results published in paper PMC3207901, “Nodulin 41, a novel late nodulin of common bean with peptidase activity” (BMC Plant Biology, 2011).
Where a SMILES comes first, the peptide text is derived from it. [ ]: non-standard residue; d: D form. The star is where a group is joined. Sta = CC(C)C[C@H](N)[C@@H](O)CC(=O)O; Isovaleryl = CC(C)CC(=O)*

Molecular target: T1, PvNod41 (nodulin 41) (Phaseolus vulgaris, UniProt G1FTR5)
T1 construct: gene Nod41; native mature enzyme purified from 21 dpi root nodules; 437-residue precursor, 22-residue putative signal peptide and 50-residue prosegment removed; single chain, 41 kDa on SDS-PAGE
T1 sequence (G1FTR5 73-437): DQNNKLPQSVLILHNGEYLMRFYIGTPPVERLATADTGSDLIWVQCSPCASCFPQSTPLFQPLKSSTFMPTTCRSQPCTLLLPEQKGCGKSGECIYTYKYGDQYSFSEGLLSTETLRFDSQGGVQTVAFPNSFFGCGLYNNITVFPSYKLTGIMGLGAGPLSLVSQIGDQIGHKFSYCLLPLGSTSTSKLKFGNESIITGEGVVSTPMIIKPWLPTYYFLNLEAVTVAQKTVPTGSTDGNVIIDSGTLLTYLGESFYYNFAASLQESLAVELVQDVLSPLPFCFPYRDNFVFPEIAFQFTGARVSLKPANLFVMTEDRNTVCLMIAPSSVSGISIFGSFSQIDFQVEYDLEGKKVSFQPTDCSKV
Assay: casein degradation, SDS-PAGE densitometry
Type: biochemical
Details: 2 µM, casein substrate, 50 mM sodium citrate, pH 4.5, 37°C, 15 min preincubation
Text: casein degradation, SDS-PAGE densitometry on PvNod41 (nodulin 41)

CC(C)CC(=O)N[C@H](C(=O)N[C@H](C(=O)N[C@@H](CC(C)C)[C@@H](O)CC(=O)N[C@@H](C)C(=O)N[C@@H](CC(C)C)[C@@H](O)CC(=O)O)C(C)C)C(C)C [Pepstatin A] (Isovaleryl-VV[Sta]A[Sta]-OH) was tested, and the “% of residual activity (n = 3)” value was 55 (± 5) %.
